Measurements: patent publication US5948786A, “Piperidinylpyrimidine derivatives” (Sumitomo Pharmaceuticals Company, Limited, priority 1996, dated 1999)

test system: TNF α production from mouse macrophages; assay: Inhibitory activity of compound on TNF α Production from mouse macrophages (LPS-induced PEC's); type: cell-based; conditions: Macrophage, LPS 10 μg/ml, 18 hours
Experimental: BALB/c mice (female, 5-7 weeks old, Charles River Japan, Tokyo, Japan) were injected i.p. with 1 ml of 2.4% thioglycollate broth. After 4 days, the mice were sacrificed. Peritoneal exudated cells (PEC's) were collected from the peritoneal cavity by washing with minimum essential medium (MEM, Handai biseibutubyou kenkyukai, Osaka, Japan) containing 5 U/ml heparin, 1% fetal bovine serum (FBS, Filtron, Victoria, Australia) and antibiotics. The cells were washed two times with MEM, suspended with MEM containing 10% FBS (complete MEM, cMEM) and seeded into 96-well culture plates (Costar, Cambridge, Mass., USA) at 2×10^5 cells/well. The cells were incubated for 1 hour at 37° C. in a humidified 5% CO2 incubator and washed two times to remove non-adherent cells.
TNF α was induced by 10 μg/ml of LPS (E. coli O111B4, DIFCO, Detroit, Mich., USA) the cells were cultured for 18 hours at 37° C. A compound of the present invention was dissolved in DMSO and added to the culture simultaneously with LPS. The final DMSO concentration was below 0.1%. The TNF α concentration in supernatant and recombinant mouse TNF α standard (rm-TNF α, Genzyme, Mass., USA) were incubated overnight at 4° C. in a 96-well plate coated with anti-mouse TNF α monoclonal antibody (PharMingen, San Diego, Calif., USA) that previously had been blocked with 10% FBS. Each well of the plate first was incubated at room temperature with biotinylated anti-mouse TNF α polyclonal antibodies (PharMingen) for 45 minutes, then with peroxidase-conjugated streptavidin (Kirkegaard & Perry Laboratories Inc., Gaitherburg, Md., USA) for 30 minutes. After each incubation, the plate was washed 4 to 8 times with PBS containing 0.2% Tween 20. TMB (Kirkegaard & Perry Laboratories Inc.) was the peroxidase substrate used and, the absorbance of each well was quantified at 450 nm by a microplatereader (Molecular Devices Corp., CA, USA). TNF α levels in the supernatant were quantified with rm-TNF α as the standard.

SMILES	inhibition at 30 µM
Nc1nc(C2CCN(C(=O)c3ccc(Cl)cc3Cl)CC2)c2ccccc2n1 [Example 59]	56%
Nc1nc(C2CCN(C(=O)c3cc(Cl)ccc3Cl)CC2)c2ccccc2n1 [Example 60]	73%
Nc1nc(C2CCN(C(=O)c3ccc(Cl)c(Cl)c3)CC2)c2ccccc2n1 [Example 62]	55%
Nc1nc(C2CCN(C(=O)c3cccc4ccccc34)CC2)c2ccccc2n1 [Example 66]	32%
COc1ccc(C(=O)N2CCC(c3nc(N)nc4ccccc34)CC2)c(OC)c1OC [Example 68]	8%
COc1ccc(OC)c(C(=O)N2CCC(c3nc(N)nc4ccccc34)CC2)c1OC [Example 69]	-95%
COc1cc(C(=O)N2CCC(c3nc(N)nc4ccccc34)CC2)cc(OC)c1OC [Example 72]	32%
Nc1nc(C2CCN(C(=O)c3cc(Cl)cc(Cl)c3Cl)CC2)c2ccccc2n1 [Example 73]	23%
Nc1nc(C2CCN(C(=O)c3c(Cl)ccc(Cl)c3Cl)CC2)c2ccccc2n1 [Example 74]	88%
Nc1nc(C2CCN(C(=O)c3c(Cl)cc(Cl)cc3Cl)CC2)c2ccccc2n1 [Example 75]	92%
COc1ccccc1CC(=O)N1CCC(c2nc(N)nc3ccccc23)CC1 [Example 77]	27%
COc1cccc(CC(=O)N2CCC(c3nc(N)nc4ccccc34)CC2)c1 [Example 78]	10%
COc1ccc(CC(=O)N2CCC(c3nc(N)nc4ccccc34)CC2)cc1 [Example 79]	-3%
Nc1nc(C2CCN(C(=O)Cc3ccccc3Cl)CC2)c2ccccc2n1 [Example 80]	28%
Nc1nc(C2CCN(C(=O)Cc3cccc(Cl)c3)CC2)c2ccccc2n1 [Example 81]	56%
Nc1nc(C2CCN(C(=O)Cc3ccc(Cl)cc3)CC2)c2ccccc2n1 [Example 82]	59%
Nc1nc(C2CCN(C(=O)Cc3ccc([N+](=O)[O-])cc3)CC2)c2ccccc2n1 [Example 88]	26%
COc1ccc(CC(=O)N2CCC(c3nc(N)nc4ccccc34)CC2)cc1OC [Example 92]	68%
COc1cc(CC(=O)N2CCC(c3nc(N)nc4ccccc34)CC2)cc(OC)c1 [Example 93]	60%
Nc1nc(C2CCN(C(=O)Cc3ccc(Cl)cc3Cl)CC2)c2ccccc2n1 [Example 94]	78%
Nc1nc(C2CCN(C(=O)Cc3ccc(Cl)c(Cl)c3)CC2)c2ccccc2n1 [Example 96]	100%
Nc1nc(C2CCN(C(=O)Cc3ccc([N+](=O)[O-])cc3[N+](=O)[O-])CC2)c2ccccc2n1 [Example 97]	45%
Nc1nc(C2CCN(C(=O)Cc3c(Cl)ccc(Cl)c3Cl)CC2)c2ccccc2n1 [Example 98]	43%
CCCCCCC(=O)N1CCC(c2nc(N)nc3ccc(OC)cc23)CC1 [Example 103]	44%

SMILES	inhibition at 30 µM
CCCCCCCC(=O)N1CCC(c2nc(N)nc3ccc(OC)cc23)CC1 [Example 104]	50%
CCCCCCCCC(=O)N1CCC(c2nc(N)nc3ccc(OC)cc23)CC1 [Example 105]	54%
CCCCCCCCCC(=O)N1CCC(c2nc(N)nc3ccc(OC)cc23)CC1 [Example 106]	54%
COc1ccc(C(=O)N2CCC(c3nc(N)nc4ccc(OC)cc34)CC2)cc1 [Example 110]	21%
COc1ccc2nc(N)nc(C3CCN(C(=O)c4ccc(Cl)cc4)CC3)c2c1 [Example 113]	-1%
COc1ccc2nc(N)nc(C3CCN(C(=O)c4ccc([N+](=O)[O-])cc4)CC3)c2c1 [Example 116]	23%
COc1ccc(CC(=O)N2CCC(c3nc(N)nc4ccc(OC)cc34)CC2)cc1 [Example 120]	31%
COc1ccc2nc(N)nc(C3CCN(C(=O)Cc4ccc(Cl)cc4)CC3)c2c1 [Example 123]	28%
COc1ccc2nc(N)nc(C3CCN(C(=O)Cc4ccc([N+](=O)[O-])cc4)CC3)c2c1 [Example 126]	43%
CCCCCCCC(=O)N1CCC(c2nc(N)nc3ccc(Cl)cc23)CC1 [Example 127]	48%
CCCCCCCCC(=O)N1CCC(c2nc(N)nc3ccc(Cl)cc23)CC1 [Example 128]	79%
CCCCCCCCCC(=O)N1CCC(c2nc(N)nc3ccc(Cl)cc23)CC1 [Example 129]	48%
COc1ccc(CC(=O)N2CCC(c3nc(N)nc4ccc(Cl)cc34)CC2)cc1 [Example 131]	23%
Nc1nc(C2CCN(C(=O)Cc3ccc(Cl)cc3)CC2)c2cc(Cl)ccc2n1 [Example 132]	55%
Nc1nc(C2CCN(C(=O)Cc3ccc([N+](=O)[O-])cc3)CC2)c2cc(Cl)ccc2n1 [Example 133]	35%
CCCCCCCC(=O)N1CCC(c2cc(-c3ccccc3)nc(N)n2)CC1 [Example 136]	48%
CCCCCCCCC(=O)N1CCC(c2cc(-c3ccccc3)nc(N)n2)CC1 [Example 137]	67%
CCCCCCCCCC(=O)N1CCC(c2cc(-c3ccccc3)nc(N)n2)CC1 [Example 138]	70%
COc1ccc(CC(=O)N2CCC(c3cc(-c4ccccc4)nc(N)n3)CC2)cc1 [Example 142]	55%
Nc1nc(-c2ccccc2)cc(C2CCN(C(=O)Cc3ccc(Cl)cc3)CC2)n1 [Example 143]	55%
Nc1nc(-c2ccccc2)cc(C2CCN(C(=O)Cc3ccc([N+](=O)[O-])cc3)CC2)n1 [Example 144]	6%
CCCCCCCC(=O)N1CCC(c2cc(-c3ccc(Cl)cc3)nc(N)n2)CC1 [Example 147]	55%
CCCCCCCCC(=O)N1CCC(c2cc(-c3ccc(Cl)cc3)nc(N)n2)CC1 [Example 148]	68%
CCCCCCCCCC(=O)N1CCC(c2cc(-c3ccc(Cl)cc3)nc(N)n2)CC1 [Example 149]	57%

SMILES	inhibition at 30 µM
COc1ccc(CC(=O)N2CCC(c3cc(-c4ccc(Cl)cc4)nc(N)n3)CC2)cc1 [Example 151]	70%
Nc1nc(-c2ccc(Cl)cc2)cc(C2CCN(C(=O)Cc3ccc(Cl)cc3)CC2)n1 [Example 152]	90%
Nc1nc(-c2ccc(Cl)cc2)cc(C2CCN(C(=O)Cc3ccc([N+](=O)[O-])cc3)CC2)n1 [Example 153]	92%
CCCCCCCC(=O)N1CCC(c2cc(-c3ccc(OC)cc3)nc(N)n2)CC1 [Example 154]	86%
CCCCCCCCC(=O)N1CCC(c2cc(-c3ccc(OC)cc3)nc(N)n2)CC1 [Example 155]	76%
CCCCCCCCCC(=O)N1CCC(c2cc(-c3ccc(OC)cc3)nc(N)n2)CC1 [Example 156]	74%
COc1ccc(CC(=O)N2CCC(c3cc(-c4ccc(OC)cc4)nc(N)n3)CC2)cc1 [Example 158]	61%
COc1ccc(-c2cc(C3CCN(C(=O)Cc4ccc(Cl)cc4)CC3)nc(N)n2)cc1 [Example 159]	75%
COc1ccc(-c2cc(C3CCN(C(=O)Cc4ccc([N+](=O)[O-])cc4)CC3)nc(N)n2)cc1 [Example 160]	57%
COc1ccc(Cc2cc(C3CCN(C(C)=O)CC3)nc(N)n2)cc1 [Example 162]	61%
CCC(=O)N1CCC(c2cc(Cc3ccc(OC)cc3)nc(N)n2)CC1 [Example 163]	79%
CCCC(=O)N1CCC(c2cc(Cc3ccc(OC)cc3)nc(N)n2)CC1 [Example 164]	43%
CCCCC(=O)N1CCC(c2cc(Cc3ccc(OC)cc3)nc(N)n2)CC1 [Example 165]	41%
CCCCCC(=O)N1CCC(c2cc(Cc3ccc(OC)cc3)nc(N)n2)CC1 [Example 166]	48%
CCCCCCC(=O)N1CCC(c2cc(Cc3ccc(OC)cc3)nc(N)n2)CC1 [Example 167]	52%
CCCCCCCC(=O)N1CCC(c2cc(Cc3ccc(OC)cc3)nc(N)n2)CC1 [Example 168]	49%
CCCCCCCCC(=O)N1CCC(c2cc(Cc3ccc(OC)cc3)nc(N)n2)CC1 [Example 169]	12%
CCCCCCCCCC(=O)N1CCC(c2cc(Cc3ccc(OC)cc3)nc(N)n2)CC1 [Example 170]	11%
CCCCCCCCCCC(=O)N1CCC(c2cc(Cc3ccc(OC)cc3)nc(N)n2)CC1 [Example 171]	13%
COc1ccc(Cc2cc(C3CCN(C(=O)C(C)(C)C)CC3)nc(N)n2)cc1 [Example 173]	31%
COc1ccc(Cc2cc(C3CCN(C(=O)CCCl)CC3)nc(N)n2)cc1 [Example 174]	54%
COc1ccc(Cc2cc(C3CCN(C(=O)CCBr)CC3)nc(N)n2)cc1 [Example 175]	48%
